Data from ChEMBL document CHEMBL1201862, “PubChem BioAssay data set” (2004).
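Five compound concentrations were applied to cells in 96-well plates for 48 hours; endpoints were derived by simple linear interpolation of the resulting dose-response curve. GI50 marks 50% less growth.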 Calls of active or inactive are those of the source. Rule as the data show it: active = GI50 up to about 1.1 µM and inactive = higher.

Experiments:
Test in all cases: NCI tumour cell line growth inhibition, 48 h
786-0 = test system: 786-0
A498 = test system: A498
ACHN = test system: ACHN
HCC 2998 = test system: HCC 2998
HT-29 = test system: HT-29
K562 = test system: K562
KM12 = test system: KM12
NCI-H522 = test system: NCI-H522
OVCAR-8 = test system: OVCAR-8
SF-268 = test system: SF-268
SF-295 = test system: SF-295
SF-539 = test system: SF-539
SK-MEL-2 = test system: SK-MEL-2
SNB-75 = test system: SNB-75

Measured: GI50

Cc1cccc2c(=O)c([Se]c3coc4c(C)cccc4c3=O)coc12
inactive: 786-0 17.3 µM | A498 24.6 µM | ACHN 18.4 µM | HCC 2998 21.2 µM | HT-29 25.6 µM | K562 69.5 µM | KM12 13.7 µM | NCI-H522 31.3 µM | OVCAR-8 15.9 µM | SF-268 19.6 µM | SF-295 3.56 µM | SF-539 16.3 µM | SK-MEL-2 18.5 µM | SNB-75 16.7 µM

N=C(N)NS(=O)(=O)c1ccc(Nc2c3ccccc3nc3c(C(=O)N4CCN(CCO)CC4)cccc23)cc1
inactive: 786-0 > 100 µM | A498 > 100 µM | ACHN > 100 µM | HCC 2998 > 100 µM | HT-29 > 100 µM | K562 > 100 µM | KM12 > 100 µM | NCI-H522 > 100 µM | OVCAR-8 > 100 µM | SF-268 > 100 µM | SF-295 > 100 µM | SF-539 > 100 µM | SK-MEL-2 > 100 µM | SNB-75 > 100 µM

Cc1ccc(S(=O)(=O)c2c(N)c3nccn3c3nc4ccccc4nc23)cc1
inactive: 786-0 49 µM | ACHN 79.8 µM | HCC 2998 > 100 µM | K562 > 100 µM | KM12 > 100 µM | NCI-H522 > 100 µM | OVCAR-8 > 100 µM | SF-268 > 100 µM | SF-539 > 100 µM | SK-MEL-2 > 100 µM | SNB-75 7.85 µM

COc1ccc2nc3cc(Cl)ccc3c(NCCC(=O)OCC(O)C(O)C(O[C@H](C)C(=O)NC(C)C(=O)NC(CCC(N)=O)C(=O)OCc3ccccc3)C(C=O)NC(C)=O)c2c1 (some centres undefined)
inactive: 786-0 16.9 µM | A498 21 µM | ACHN 18.1 µM | HCC 2998 17.7 µM | HT-29 17.8 µM | K562 14 µM | KM12 19.1 µM | NCI-H522 14.5 µM | OVCAR-8 16 µM | SF-268 17.9 µM | SF-295 18.2 µM | SF-539 16.8 µM | SK-MEL-2 21.1 µM | SNB-75 16.1 µM

O=C1c2ccccc2C2(O)Oc3cccc(O)c3C12O (centres undefined)
inactive: 786-0 > 100 µM | A498 > 100 µM | ACHN > 100 µM | HCC 2998 > 100 µM | HT-29 > 100 µM | K562 > 100 µM | KM12 > 100 µM | NCI-H522 > 100 µM | OVCAR-8 > 100 µM | SF-268 > 100 µM | SF-295 > 100 µM | SF-539 > 100 µM | SK-MEL-2 > 100 µM | SNB-75 > 100 µM

CCOC(=O)NN1C(=O)C(=P(c2ccccc2)(c2ccccc2)c2ccccc2)C(C(=O)OCC)=C1C
inactive: 786-0 > 100 µM | A498 > 100 µM | ACHN > 100 µM | HCC 2998 > 100 µM | HT-29 > 100 µM | K562 > 100 µM | KM12 > 100 µM | NCI-H522 > 100 µM | OVCAR-8 > 100 µM | SF-268 > 100 µM | SF-295 > 100 µM | SF-539 > 100 µM | SK-MEL-2 > 100 µM | SNB-75 > 100 µM

CCCCNC(=O)C1C2CCC(O2)C1C(=O)O (centres undefined)
inactive: 786-0 16.1 µM | A498 12.7 µM | ACHN 22.6 µM | HCC 2998 26.2 µM | HT-29 23.1 µM | KM12 56.2 µM | NCI-H522 18.9 µM | OVCAR-8 20.5 µM | SF-268 17.7 µM | SF-295 23.1 µM | SF-539 21 µM | SK-MEL-2 27.5 µM | SNB-75 16.8 µM

CSc1nc2c(nc(N)n2C2OCC(O)C(O)C2O)c(=O)n1C (centres undefined)
inactive: 786-0 > 100 µM | A498 > 100 µM | ACHN > 100 µM | HCC 2998 > 100 µM | HT-29 > 100 µM | K562 > 100 µM | KM12 > 100 µM | NCI-H522 > 100 µM | OVCAR-8 > 100 µM | SF-268 > 100 µM | SF-295 > 100 µM | SF-539 > 100 µM | SNB-75 > 100 µM

CCCCCCCC/C=C\CCCCCCCC(=O)NCCN(CCN)C(=O)CCCCCCC/C=C\CCCCCCCC
inactive: 786-0 > 100 µM | A498 > 100 µM | ACHN > 100 µM | HCC 2998 > 100 µM | HT-29 > 100 µM | K562 > 100 µM | OVCAR-8 > 100 µM | SF-268 > 100 µM | SF-295 > 100 µM

COc1ccccc1NC(=O)c1nc2ccc([N+](=O)[O-])cc2nc1C
inactive: 786-0 > 100 µM | A498 > 100 µM | ACHN > 100 µM | HCC 2998 > 100 µM | HT-29 > 100 µM | K562 > 100 µM | KM12 > 100 µM | NCI-H522 57.8 µM | OVCAR-8 > 100 µM | SF-268 > 100 µM | SF-539 > 100 µM | SK-MEL-2 > 100 µM | SNB-75 65.3 µM

COc1ccc(NC(=O)CC(=O)N/N=C/c2ccc(N(CCC#N)S(=O)(=O)c3ccccc3)cc2)cc1
inactive: 786-0 > 100 µM | ACHN > 100 µM | HCC 2998 > 100 µM | HT-29 > 100 µM | K562 > 100 µM | KM12 > 100 µM | NCI-H522 > 100 µM | OVCAR-8 > 100 µM | SF-268 > 100 µM | SF-295 > 100 µM | SK-MEL-2 > 100 µM | SNB-75 > 10 µM

CCCCCCCCCCC/C(=N/O)c1ccc(O)c2ncccc12
inactive: 786-0 10.6 µM | ACHN 2.21 µM | HCC 2998 5.28 µM | HT-29 4.11 µM | KM12 6.41 µM | NCI-H522 2.31 µM | OVCAR-8 4.29 µM | SF-268 2.9 µM | SF-295 2.71 µM | SF-539 2.02 µM | SK-MEL-2 2.4 µM | SNB-75 2.52 µM

OC1C2C=CCC1CCC2 (centres undefined)
inactive: 786-0 > 100 µM | A498 > 100 µM | ACHN > 100 µM | HT-29 > 100 µM | K562 > 100 µM | KM12 > 100 µM | NCI-H522 > 100 µM | OVCAR-8 > 100 µM | SF-268 > 100 µM | SF-295 > 100 µM | SF-539 > 100 µM | SK-MEL-2 > 100 µM | SNB-75 > 100 µM

O=C(O)CCSCCCN1C(=O)c2ccccc2C1=O
inactive: 786-0 > 100 µM | ACHN > 100 µM | HCC 2998 > 100 µM | HT-29 > 100 µM | K562 > 100 µM | KM12 > 100 µM | OVCAR-8 > 100 µM | SF-268 > 100 µM | SF-295 > 100 µM | SF-539 > 100 µM | SK-MEL-2 > 100 µM | SNB-75 > 100 µM

O=C(Nc1cc(Cl)c(Cl)cc1Cl)C(=O)C(C(=O)c1ccc2ccccc2c1)C1OC(=O)c2ccccc21 (centres undefined)
inactive: 786-0 8.11 µM | A498 12 µM | ACHN 16.7 µM | HT-29 18.2 µM | KM12 14.6 µM | NCI-H522 12 µM | OVCAR-8 8 µM | SF-268 > 10 µM | SF-295 6.59 µM | SF-539 3.39 µM | SK-MEL-2 14.4 µM
